Earlier results in patent publication US20030203881A1, “Method of treating neurologic disorders” (priority 2000, published 2003).

Legend:
microglial response = conditions: experimental model of stroke, around stroke lesions
neurons = conditions: tissue culture
inflammatory cells = conditions: EAE
[1] = tested on: patients with mild and moderate arthritis
[2] = tested on: osteoarthritis in dog models; conditions: prophylactic administration

SMILES	microglial response in the area surrounding areas of brain ischemia (microglial response)	protection of neurons against death (neurons)	invasion of inflammatory cells into the CNS (inflammatory cells)	efficacy in patients with arthritis [1]	safety in patients with arthritis [1]	severity of osteoarthritis [2]
CN(C)c1ccc(O)c2c1C[C@H]1C[C@H]3[C@H](N(C)C)C(=O)C(C(N)=O)=C(O)[C@@]3(O)C(=O)C1=C2O [minocycline]	reduced the microglial response	protects neurons against death	prevents the invasion of inflammatory cells into the CNS	effective	safe	–
C[C@H]1c2cccc(O)c2C(=O)C2=C(O)[C@]3(O)C(=O)C(C(N)=O)=C(O)[C@@H](N(C)C)[C@@H]3[C@@H](O)[C@@H]21 [doxycycline]	–	–	–	–	–	markedly reduced the severity of osteoarthritis
